Melting point data for 86 molecules are collected here from a melting point compilation (Tetko et al.; mined from patent text by program, amines drawn as free bases though some values may be those of a salt).

Structures are written as SMILES. Residues, ends and D or L forms follow the SMILES beside them. *: point of attachment. Boc = CC(C)(C)OC(=O)*; NHNH2 = NN*

Broadly, the melting point is the temperature of the solid-liquid transition. As to `CN1CCOC(CN2C(=O)C3(COc4cc5c(cc43)OCCO5)c3ccccc32)C1` (stereo unspecified), the melting point is 85 to 90 °C.
On to `CC1(CCl)CC(SCc2c(C(F)(F)F)n[nH]c2Cl)=NO1` (stereo unspecified), for which the melting point was 105 to 107 °C.
For the molecule `COC(=O)Cc1ccccc1OCc1ccc(OCCc2nc(-c3ccccc3)oc2C)nc1`, the melting point lay in the range of 78 to 79 °C.
`O=C1C2C3C=CC(CC3)C2S(=O)(=O)N1CCCCBr` (stereo unspecified) gave a melting point of 118 to 122 °C.
As to `O=C(O)CCCOc1cccc(CCCCCCOc2ccc3c(c2CCCc2ccccc2)CCCC3=O)c1CCC(=O)O`, the melting point lay in the range of 89 to 91 °C.
In the case of `O=C(O)c1cn(C2CC2)c2cc(N3CCC3)c(F)cc2c1=O`, the melting point fell in the range of 291 to 294 °C.
Regarding `C#CCN(C(=O)c1cnccc1C(F)(F)F)S(=O)(=O)c1cccc(Cl)c1`, the melting point lay in the range of 82 to 85 °C.
In turn, `Cc1ncc(C#N)c(Nc2cccc3[nH]ccc23)c1-c1ccc(OCCCl)cc1` returned a melting point of 185 to 186 °C.
For the molecule `COc1ccc(C(C)=NOCc2cccc(F)c2)cc1F`, the melting point stood at 67 °C.
In turn, `Cn1nc(N)c2sc3c(Cl)cccc3c21` registered a melting point of 239 to 241 °C.
On to `CC(=O)OC(CN(Cc1ccccc1)Cc1ccccc1)c1cc(C#N)c2c(c1)CCN2C(C)=O` (stereo unspecified), for which the melting point is 108 to 109 °C.
`N#CNc1ccccc1-c1ccccc1` came in with a melting point of 85 to 87 °C.
On to `CC(C)c1cc(C(=O)C=CC(=O)N2CCN(C)CC2)ccc1OCC(=O)Nc1nc2ccccc2s1`, for which the melting point was in the range of 114 to 115 °C.
With `CC1=C(n2ccccc2=O)c2cc([N+](=O)[O-])ccc2OC1(C)C` the figure was 200 °C.
Consider `COc1ccc2cc(-n3c(C)nnc3C)cc(C)c2n1`, for which the melting point was in the range of 211 to 213 °C.
Regarding `Cc1cccc(-c2n[nH]cc2-c2ccc(F)c(-c3cc(F)c(S(N)(=O)=O)cc3F)c2)n1`, the melting point was 122 to 125 °C.
Turning to `CCN1C(=O)c2cnc(-c3ccccc3)nc2N(C(=O)CN(C(C)C)C(C)C)c2ccccc21`, the melting point is 120 to 121 °C.
On to `C[C@@H](n1cnc2cc(N3CCN(c4ccc([N+](=O)[O-])cc4)CC3)ccc2c1=O)[C@](O)(Cn1cncn1)c1ccc(F)cc1F`, for which the melting point was in the range of 287 to 289 °C.
`CCCn1c(=O)c2c(nc(/C=C/c3ccc(OC(C)=O)c(OC)c3)n2C)n(CCC)c1=O` yielded a melting point of 179 to 181 °C.
Turning to `COc1ccc(CCCNC(=O)c2coc(-c3ccc(/C(=C\CCCCC(=O)O)c4cccnc4)cc3)n2)cc1`, the melting point is 49 to 58 °C.
In turn, `CCCCNC(=O)NCCCn1c(CCOC)nc2c(N)nc3ccccc3c21` registered a melting point of 159 to 160 °C.
In turn, `CN(Cc1ccccc1)C1CCN(c2c(F)cc([N+](=O)[O-])c(F)c2CCl)C1` (stereo unspecified) showed a melting point of 94 to 98 °C.
Consider `Cc1nn(C)cc1C(=O)Nc1ccccc1`, for which the melting point was 91 to 92 °C.
As for `NC(=O)/C=C/c1ccc(C(c2cc(F)ccc2F)S(=O)(=O)c2ccc(Cl)cc2)nc1` (stereo unspecified), the melting point was 219 to 220 °C.
With `Cc1c(-c2ccccc2)nc2ccccc2c1C(=O)N[C@@H](C)C1CCCCC1` the figure was 177 to 180 °C; with `CCSC1CCC(=O)N1S(=O)(=O)c1ccccc1` (stereo unspecified), 100 to 113 °C; with `COc1ccnc(C(=O)N[C@H]2COC(=O)[C@H](CCOC(=O)c3ccccc3)[C@@H](OC(=O)C(C)C)[C@H](C)OC2=O)c1OCOC(=O)C(C)C`, 48 to 50 °C.
The value for `Cc1cc(CNC(=O)c2nc3ccc(F)c(OCCc4ccc(C(=O)O)cc4)c3c(=O)[nH]2)ccc1F` was 267 to 268 °C; that for `CCCCCCCCOc1ccc(C(N)=O)c(O)c1` was 123 to 124 °C.
With `CS(=O)(=O)N1CCC(NC(=O)N(CCCN2CCC(Cc3ccccc3)CC2)c2ccccc2)CC1`, the melting point fell in the range of 158 to 160 °C.
`OC1CSC(Oc2cccnc2-c2ccc(F)cc2)C(O)C1O` (stereo unspecified) had a melting point of 110 °C.
`OCCSc1ccc(O)cc1` displayed a melting point of 70 °C.
With `COc1ccc(C[C@H](N[C@@H](Cc2ccccc2)C(=O)O)C(=O)NCCc2ocnc2C(=O)O)cc1` the figure was 103 to 106 °C; with `CSc1ccccc1CNC(=O)c1ccc2cnccc2n1`, 102 to 103 °C.
The value for `Cc1ccc(S(=O)(=O)N2CCCC(S(=O)(=O)c3cccc(Cl)c3)C2)cc1` (stereo unspecified) was 282 to 284 °C; that for `CC(COC(=O)C(=O)Nc1nc(-c2ccccc2)cs1)c1ccccc1` (stereo unspecified) was 140 to 141 °C; that for `CCN(CC)CCNc1nc2cccnc2n(-c2ccc(C)cc2)c1=O` was 131 to 132 °C.
For the molecule `CCOC(=O)c1nn(-c2ccc(Cl)cc2Cl)c(-c2ccc(Br)cc2)c1C`, the melting point was found to be 133 °C.
Molecule `CCOC(=O)C1CCC(c2ccccc2)n2c(=O)n(CCCl)c(=O)n21` (stereo unspecified) had a melting point of 87 to 89 °C.
For the molecule `CSc1nnc(-c2ccc(-c3ccccc3)cc2)n1-c1ccccc1F`, the melting point was 199 to 200 °C.
For the molecule `COc1cc(OC)nc(NC(=O)NS(=O)(=O)c2cc(Br)cc3c2OS(=O)(=O)C=C3)n1`, the melting point lay in the range of 204 to 209 °C.
As to `COc1ccc(C(N)=Nc2ccc(C(=O)O)cc2)cc1C(C)(C)C`, the melting point lay within 170 to 172 °C.
Consider `N#CSc1ccc(N)c(C#N)c1`, for which the melting point lay within 120 to 121 °C.
Consider `O=C(O)C(CCOc1ccccc1)CCOc1ccccc1`, for which the melting point is 85 to 86 °C.
With `CC1(CNC(=O)OCc2ccccc2)CCCCn2c1nc(-c1ccncn1)cc2=O` (racemic) the figure was 118 to 120 °C; with `CC(C)c1cc(Cl)cc(C(C)C)c1NC(=O)NS(=O)(=O)c1cccc(C(C)(C)O)c1`, 160 to 162 °C; with `ClC1(Cl)C(Cl)(Cl)C1(Cl)c1ccccn1`, 132 to 134 °C.
With `CCCCN1CCC(NS(=O)(=O)c2ccc(Nc3ccnc4cc(Cl)ccc34)cc2)CC1`, the melting point lay within 190 to 191 °C.
With `O=C(CO)Cc1ccc2ccccc2c1` the figure was 109 to 110 °C; with `O=C1c2ccccc2C(=O)N1Oc1ccc(-c2nc(=O)c3ccccc3s2)cn1`, 212 to 213 °C.
The value for `CC(C)(C)c1ccc(OC(CC(=O)O)C(=O)O)c(C(C)(C)C)c1` (stereo unspecified) was 177 to 181 °C.
The value for `CCOc1ccc(Cc2cc([C@@H]3O[C@H](SC)[C@@H](O)[C@H](O)[C@H]3O)ccc2Cl)cc1` was 123 °C; that for `CCOC(=O)CN(C)C(=O)c1ccsc1C(=O)c1ccc(F)cc1` was 127 to 129 °C; that for `CC#CCOc1cc(Oc2ccc(F)cc2)ncn1` was 116 °C.
The molecule `Nc1nc(N)c2ncn([C@H]3C=C[C@@H](O)C3)c2n1` (racemic) had a melting point of 167 to 170 °C.
As to `CC(=O)N[C@H]1CC[C@H](CCC(=O)O)CC1`, the melting point was 193 to 196 °C.
`Cn1cccc1-c1cc(OC(F)F)n(-c2ccc(NC(=O)c3ccncc3F)cc2)n1` displayed a melting point of 154 to 155 °C.
`CC(C)CC(NC(=O)OC(C)(C)C)C(=O)NCC(=O)NCC(=O)NC(C)C(=O)NCC(=O)NN` (stereo unspecified) (Boc-LGGAG-NHNH2; configuration not given here) returned a melting point of 174 to 176 °C.
With `COc1ccc(N(C(C)=O)C2=NN(c3ccc([N+](=O)[O-])cc3)C(=O)C2)cc1` the figure was 165 to 167 °C; with `O=c1ccn(-c2cccc(C(F)(F)F)c2)nc1-c1ccnn1-c1ccc(Cl)cc1`, 166 to 167 °C; with `CC1C(=O)c2ccccc2C1NCCc1ccccc1` (stereo unspecified), 82 to 83 °C.
`Cc1nc(NCc2ccccc2)sc1C(=O)NCc1ccccc1` showed a melting point of 169 to 172 °C.
Turning to `Cc1nc2cc(Oc3ncccc3C(=O)NCc3ccc(C(C)(C)O)cc3)ccc2s1`, the melting point lay within 124 to 126 °C.
Molecule `Cc1cc(Cl)ccc1OCC(=O)N1Cc2ccc(C(=O)c3ccc(Cl)cc3)n2Cc2ccccc21` registered a melting point of 175 to 176 °C.
Turning to `Cc1nc(COc2ccc(Cn3cc(CCC(=O)O)c(-c4ccccc4)c3)cc2)cs1`, the melting point is 113 to 114 °C.
`Cc1ccc(Cn2c3c(c4cc(-c5cccc(C)c5)ccc42)C(=O)C(=O)OC3)cc1`: the melting point was in the range of 216 to 217 °C.
In turn, `CC(=O)/C(=N/O[C@H]1CC[C@H](C(=O)N(C)C)CC1)C(=O)OC(C)(C)C` registered a melting point of 109 to 110 °C.
`CCCCCCCCN[C@@H]1Cc2cc(OC)c(OC)cc2[C@H]1O` (relative stereo) came in with a melting point of 133 to 135 °C.
In turn, `C=CC(C)(C)C(=O)C(Oc1ccc(Cl)cc1)n1cnnc1` (stereo unspecified) came in with a melting point of 124 to 126 °C.
As for `O=C1c2ccccc2S(=O)(=O)N1Cn1nnn(-c2ccccc2)c1=S`, the melting point lay within 140 to 142 °C.
With `CNC(=O)c1ncc2[nH]c3ccc(N)cc3c2c1C` the figure was 281 to 285 °C; with `Cc1cc(C2=NNC(=O)Cc3cc4c(cc32)OCO4)ccc1N`, 164 to 166 °C; with `CCN1Cc2cccnc2N(c2cccc(C(F)(F)F)c2)C1=O`, 155 to 157 °C.
Consider `CC(O)CN(CC(=O)O)CC(C)O` (stereo unspecified), for which the melting point is 145 °C.
Take `Cc1cc2ccccc2c(-c2cccc(I)c2)n1`: the melting point lay in the range of 77 to 78 °C.
As to `Cc1ccc(-c2cncc(OC3SCC(O)C(O)C3O)c2)cc1C` (stereo unspecified), the melting point worked out at 184 °C.
With `CC(=O)NC1CCN(c2ccccn2)CC1` the figure was 165 to 168 °C.
With `N#Cc1cccc(NC(=O)c2cc(-c3ccc(F)cc3F)ccc2O)c1`, the melting point fell in the range of 229 to 230 °C.
With `CCc1ccc2oc(=O)[nH]c2c1` the figure was 146 to 147 °C; with `Nc1ccc(CCC(=O)c2ccc(F)cc2)cc1`, 54 to 55 °C.
On to `CC(=O)NC[C@H]1CN(c2ccc(C(=O)c3cnc4cc(-c5ccccc5)ccn34)cc2)C(=O)O1`, for which the melting point lay within 256 to 258 °C.
With `C[C@@H]1CC(C)(C)C[C@@]2(C1)[C@@H](C)CC(=O)[C@]2(C)O` (relative stereo) the figure was 73 to 74 °C; with `Cn1cncc1C(O)(c1ccc2c(c1)c(-c1cccc(Cl)c1)cc(=O)n2C)c1nccn1C` (stereo unspecified), 130 °C; with `CSc1noc(C2CC2)c1C(=O)c1ccc(C(F)(F)F)cc1S(C)(=O)=O`, 145 to 146 °C.
The molecule `c1ccc(CN2CCN(Cc3nc4ccccc4[nH]3)CC2)cc1` yielded a melting point of 195 to 201 °C.
On to `O=C(O)CN1C(=O)C(=CC2CCCCC2)SC1=S`, for which the melting point was 191 to 193 °C.
